# Experimental data taken from US20130197032A1, “[…] COMPOUNDS FOR THE TREATMENT OF NEUROLOGICAL AND […] DISORDERS” (A. CARLSSON RESEARCH AB, priority 2010, published 2013).
# pEC50: −log10 of the molar value.
# Key:
# [1] = molecular target: human 5-HT1B receptor (Homo sapiens, UniProt P28222); assay: R-SAT assay 5-HT1B; format: cell-based
# [2] = molecular target: T1, human 5-HT1D receptor (Homo sapiens, UniProt P28221); assay: R-SAT assay 5-HT1D; format: cell-based; settings: Table 3, 5-HT1D; percent response of reference 5-CT
# T1 construct: expressed in transfected cells; host or cells: NIH/3T3
# T1 sequence (P28221 whole entry): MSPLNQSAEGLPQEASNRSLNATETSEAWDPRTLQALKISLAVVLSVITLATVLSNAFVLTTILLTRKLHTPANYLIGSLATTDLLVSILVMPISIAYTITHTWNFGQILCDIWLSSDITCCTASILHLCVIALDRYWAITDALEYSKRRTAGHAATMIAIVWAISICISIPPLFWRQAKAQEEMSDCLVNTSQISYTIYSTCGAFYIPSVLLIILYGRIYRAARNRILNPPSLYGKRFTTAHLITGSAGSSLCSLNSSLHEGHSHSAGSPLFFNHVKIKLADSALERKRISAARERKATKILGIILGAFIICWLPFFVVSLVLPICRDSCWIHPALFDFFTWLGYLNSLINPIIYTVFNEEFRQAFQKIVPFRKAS
# [3] = molecular target: T2, human 5-HT2C(vgv) receptor (Homo sapiens, UniProt P28335, I156V/I160V/N158G); assay: R-SAT assay 5-HT2C; format: cell-based; settings: Table 3, 5-HT2C; percent response of reference 5-CT
# T2 construct: expressed in transfected cells; host or cells: NIH/3T3
# T2 sequence (P28335 33-458 I156V/N158G/I160V): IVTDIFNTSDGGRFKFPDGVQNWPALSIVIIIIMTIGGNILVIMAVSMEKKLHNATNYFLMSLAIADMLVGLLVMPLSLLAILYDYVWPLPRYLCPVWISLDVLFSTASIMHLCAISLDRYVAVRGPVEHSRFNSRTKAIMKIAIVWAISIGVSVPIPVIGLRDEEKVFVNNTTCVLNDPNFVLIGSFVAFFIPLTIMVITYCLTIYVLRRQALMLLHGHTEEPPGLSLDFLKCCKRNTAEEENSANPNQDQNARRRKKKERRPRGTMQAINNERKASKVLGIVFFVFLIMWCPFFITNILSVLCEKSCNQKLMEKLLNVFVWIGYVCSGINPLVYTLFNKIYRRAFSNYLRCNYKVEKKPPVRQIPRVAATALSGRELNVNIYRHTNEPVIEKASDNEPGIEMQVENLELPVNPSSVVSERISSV
# [4] = molecular target: human 5-HT6 receptor (Homo sapiens, UniProt P50406); assay: R-SAT assay 5-HT6; format: cell-based
# human 5-HT6 receptor, sequence (P50406 whole entry): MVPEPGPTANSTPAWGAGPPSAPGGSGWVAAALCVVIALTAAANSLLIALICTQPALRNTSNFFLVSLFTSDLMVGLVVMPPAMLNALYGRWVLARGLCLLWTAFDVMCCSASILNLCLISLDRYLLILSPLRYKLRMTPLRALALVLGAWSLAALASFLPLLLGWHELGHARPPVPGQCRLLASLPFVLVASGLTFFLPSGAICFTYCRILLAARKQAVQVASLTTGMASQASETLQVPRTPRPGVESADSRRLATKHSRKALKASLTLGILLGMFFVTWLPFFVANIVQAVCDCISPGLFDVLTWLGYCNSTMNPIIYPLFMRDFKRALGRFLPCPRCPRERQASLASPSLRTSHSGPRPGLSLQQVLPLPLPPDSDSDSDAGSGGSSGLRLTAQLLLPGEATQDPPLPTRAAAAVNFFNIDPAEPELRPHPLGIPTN
# [5] = molecular target: T3, human 5-HT7 receptor (Homo sapiens, UniProt P34969); assay: R-SAT assay 5-HT7; format: cell-based; settings: Table 3, 5-HT7; percent response of reference 5-CT
# T3 construct: expressed in transfected cells; host or cells: NIH/3T3
# T3 sequence (P34969 whole entry): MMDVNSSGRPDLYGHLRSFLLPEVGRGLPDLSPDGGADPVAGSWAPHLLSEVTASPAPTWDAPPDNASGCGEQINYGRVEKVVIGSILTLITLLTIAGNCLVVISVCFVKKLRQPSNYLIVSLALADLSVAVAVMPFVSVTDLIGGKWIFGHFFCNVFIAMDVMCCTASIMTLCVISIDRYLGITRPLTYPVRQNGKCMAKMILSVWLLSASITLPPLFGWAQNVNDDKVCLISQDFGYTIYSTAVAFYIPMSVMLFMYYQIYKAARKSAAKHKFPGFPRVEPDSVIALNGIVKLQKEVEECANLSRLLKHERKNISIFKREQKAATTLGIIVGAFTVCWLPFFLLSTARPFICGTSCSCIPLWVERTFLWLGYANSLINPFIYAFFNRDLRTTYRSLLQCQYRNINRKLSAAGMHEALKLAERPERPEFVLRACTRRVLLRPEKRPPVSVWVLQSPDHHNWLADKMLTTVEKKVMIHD
# [6] = molecular target: T4, human 5-HT2A receptors (Homo sapiens, UniProt P28223); assay: Phosphatidyl inositol (PI) hydrolysis assay at 5-HT2A; format: cell-based; set-up: expressed in transfected cells; settings: mean ± SEM
# T4 sequence (P28223 whole entry): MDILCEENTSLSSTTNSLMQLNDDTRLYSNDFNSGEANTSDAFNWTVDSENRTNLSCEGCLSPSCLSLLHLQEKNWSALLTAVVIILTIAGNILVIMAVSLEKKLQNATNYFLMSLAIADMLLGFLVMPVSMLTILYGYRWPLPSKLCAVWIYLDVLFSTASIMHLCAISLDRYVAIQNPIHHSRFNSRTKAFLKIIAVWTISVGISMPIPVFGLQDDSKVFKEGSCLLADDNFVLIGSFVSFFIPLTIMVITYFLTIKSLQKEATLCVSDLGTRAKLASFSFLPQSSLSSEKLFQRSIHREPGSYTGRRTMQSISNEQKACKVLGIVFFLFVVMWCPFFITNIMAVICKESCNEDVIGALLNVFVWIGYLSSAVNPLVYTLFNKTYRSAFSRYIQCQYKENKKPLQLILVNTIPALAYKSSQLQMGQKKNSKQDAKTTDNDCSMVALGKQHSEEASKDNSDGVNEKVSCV
# Method: After lysing the cells with 50 μl of 0.1M formic acid, 20 μl each cell lysate was mixed with 80 μl (1 mg) RNA Binding YSi-SPA beads (GE Healthcare, Chalfont St. Giles, UK) on PICO plates (PerkinElmer) and counted on a TopCount (Packard).
# Each curve is representative of at least three or more independent experiments.
# [7] = molecular target: T4, human 5-HT2A receptors; assay: R-SAT functional assay at 5-HT2A; format: cell-based; set-up: expressed in transfected cells; host or cells: NIH-3T3
# [8] = molecular target: 5-HT2B receptors (Homo sapiens, UniProt P41595); assay: R-SAT assay 5-HT2B; format: cell-based; set-up: expressed in transfected cells; host or cells: NIH/3T3
# 5-HT2B receptors, sequence (P41595 whole entry): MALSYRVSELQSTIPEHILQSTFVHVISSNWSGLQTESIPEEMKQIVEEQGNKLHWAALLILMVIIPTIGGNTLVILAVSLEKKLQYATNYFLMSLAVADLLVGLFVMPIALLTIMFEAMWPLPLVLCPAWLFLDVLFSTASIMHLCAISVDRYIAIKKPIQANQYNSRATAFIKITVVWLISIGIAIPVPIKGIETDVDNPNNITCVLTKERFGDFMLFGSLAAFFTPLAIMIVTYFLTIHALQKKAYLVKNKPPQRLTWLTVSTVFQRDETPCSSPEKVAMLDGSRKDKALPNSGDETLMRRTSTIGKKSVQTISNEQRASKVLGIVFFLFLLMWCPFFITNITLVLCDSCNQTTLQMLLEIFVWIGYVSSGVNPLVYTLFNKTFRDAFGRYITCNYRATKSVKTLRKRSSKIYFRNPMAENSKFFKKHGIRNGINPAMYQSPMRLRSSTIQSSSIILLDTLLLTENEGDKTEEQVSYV
# [9] = molecular target: T4, human 5-HT2A receptors; assay: BRET2 beta-arrestin-2 recruitment assay at 5-HT2A; format: cell-based; set-up: expressed in transfected cells; host or cells: HEK-293T; settings: mean ± SEM
# Method: (§1) BRET-2 signals were measured using the multiplate reader Mithras 940LB (Berthold Technologies, Bad Wildbad, Germany) and were calculated as the ratio between the Renilla luciferase emission and the GFP2 emission corrected by the background emissions of non-transfected cells.
# [10] = molecular target: T5, human M2 receptor (Homo sapiens, UniProt P08172); assay: R-SAT assay M2; format: cell-based; settings: Table 3, M2; percent response of reference Carbachol
# T5 construct: expressed in transfected cells; host or cells: NIH/3T3
# T5 sequence (P08172 1-466): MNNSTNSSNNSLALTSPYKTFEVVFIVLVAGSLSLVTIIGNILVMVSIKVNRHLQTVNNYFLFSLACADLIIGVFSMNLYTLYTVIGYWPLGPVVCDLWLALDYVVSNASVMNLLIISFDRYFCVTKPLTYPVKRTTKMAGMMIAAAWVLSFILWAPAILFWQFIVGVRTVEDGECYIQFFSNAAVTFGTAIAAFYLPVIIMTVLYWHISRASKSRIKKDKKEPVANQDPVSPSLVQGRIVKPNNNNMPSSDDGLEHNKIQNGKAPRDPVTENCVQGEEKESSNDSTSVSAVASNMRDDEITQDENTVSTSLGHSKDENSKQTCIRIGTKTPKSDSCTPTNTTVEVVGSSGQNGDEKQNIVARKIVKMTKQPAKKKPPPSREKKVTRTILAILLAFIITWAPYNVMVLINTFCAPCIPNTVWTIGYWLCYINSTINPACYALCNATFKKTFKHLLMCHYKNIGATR
# [11] = molecular target: T6, human M4 receptor (Homo sapiens, UniProt P08173); assay: R-SAT assay M4; format: cell-based; settings: Table 3, M4; percent response of reference Carbachol
# T6 construct: expressed in transfected cells; host or cells: NIH/3T3
# T6 sequence (P08173 1-479): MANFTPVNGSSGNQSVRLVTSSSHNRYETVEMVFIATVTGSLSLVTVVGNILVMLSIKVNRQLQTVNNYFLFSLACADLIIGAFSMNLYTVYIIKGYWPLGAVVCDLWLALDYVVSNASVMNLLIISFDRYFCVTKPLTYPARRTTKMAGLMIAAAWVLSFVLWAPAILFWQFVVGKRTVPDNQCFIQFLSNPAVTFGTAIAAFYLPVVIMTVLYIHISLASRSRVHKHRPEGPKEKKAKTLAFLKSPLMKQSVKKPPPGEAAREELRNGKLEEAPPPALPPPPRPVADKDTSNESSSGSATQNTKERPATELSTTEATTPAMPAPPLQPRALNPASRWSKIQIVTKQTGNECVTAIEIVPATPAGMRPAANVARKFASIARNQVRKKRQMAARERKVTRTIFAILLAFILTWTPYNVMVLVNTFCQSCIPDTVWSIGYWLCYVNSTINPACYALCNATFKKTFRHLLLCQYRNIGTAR
# [12] = molecular target: T7, human M5 receptor (Homo sapiens, UniProt P08912); assay: R-SAT assay M5; format: cell-based; settings: Table 3, M5; percent response of reference Carbachol
# T7 construct: expressed in transfected cells; host or cells: NIH/3T3 cells, transient transfection, pSI vector
# T7 sequence (P08912 whole entry): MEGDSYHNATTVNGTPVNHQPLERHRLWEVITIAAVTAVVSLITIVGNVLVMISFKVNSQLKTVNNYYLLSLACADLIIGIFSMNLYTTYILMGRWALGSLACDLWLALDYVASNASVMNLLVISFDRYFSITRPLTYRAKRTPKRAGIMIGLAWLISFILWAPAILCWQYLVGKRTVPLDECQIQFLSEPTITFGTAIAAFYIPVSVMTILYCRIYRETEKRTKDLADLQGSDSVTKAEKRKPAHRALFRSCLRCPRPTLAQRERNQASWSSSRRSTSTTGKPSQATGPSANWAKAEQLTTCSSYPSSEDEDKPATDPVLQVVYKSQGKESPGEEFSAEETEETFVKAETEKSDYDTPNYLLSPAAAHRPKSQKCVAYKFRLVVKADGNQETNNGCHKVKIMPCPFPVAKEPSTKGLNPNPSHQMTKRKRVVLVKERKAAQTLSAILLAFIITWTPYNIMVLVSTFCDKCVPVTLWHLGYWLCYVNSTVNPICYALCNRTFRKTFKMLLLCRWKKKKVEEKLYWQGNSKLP
# [13] = molecular target: T8, human D3 receptor (Homo sapiens, UniProt P35462); assay: R-SAT assay D3; format: cell-based; settings: Table 3, D3; percent response of reference Pergolide
# T8 construct: expressed in transfected cells
# T8 sequence (P35462 whole entry): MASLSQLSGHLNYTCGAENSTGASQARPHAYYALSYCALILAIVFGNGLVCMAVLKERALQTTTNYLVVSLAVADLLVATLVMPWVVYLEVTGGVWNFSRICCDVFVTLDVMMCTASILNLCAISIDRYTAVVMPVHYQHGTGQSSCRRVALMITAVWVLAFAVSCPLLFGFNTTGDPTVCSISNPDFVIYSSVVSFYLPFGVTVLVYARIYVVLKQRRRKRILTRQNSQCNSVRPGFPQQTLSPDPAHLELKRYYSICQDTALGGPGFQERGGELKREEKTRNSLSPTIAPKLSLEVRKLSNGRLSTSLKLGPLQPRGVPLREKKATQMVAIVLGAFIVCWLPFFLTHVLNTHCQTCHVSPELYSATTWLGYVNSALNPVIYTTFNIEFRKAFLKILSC
# [14] = molecular target: human D4 (variant 4.2) receptor (Homo sapiens, UniProt P21917, DEL265-296); format: cell-based
# human D4 (variant 4.2) receptor, sequence (P21917 with tags, fused parts or gaps DEL265-296): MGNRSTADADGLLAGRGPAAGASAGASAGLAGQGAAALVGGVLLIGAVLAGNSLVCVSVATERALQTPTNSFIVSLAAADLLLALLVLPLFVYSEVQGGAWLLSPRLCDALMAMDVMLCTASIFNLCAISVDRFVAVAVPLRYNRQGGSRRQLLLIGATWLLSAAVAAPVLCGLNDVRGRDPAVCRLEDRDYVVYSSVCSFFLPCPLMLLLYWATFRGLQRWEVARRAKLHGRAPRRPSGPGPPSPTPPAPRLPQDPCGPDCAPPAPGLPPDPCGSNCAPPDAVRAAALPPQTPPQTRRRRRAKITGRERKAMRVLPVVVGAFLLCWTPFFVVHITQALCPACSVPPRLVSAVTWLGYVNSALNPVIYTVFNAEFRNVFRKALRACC
# [15] = molecular target: T9, D2 receptors (Homo sapiens, UniProt P14416); assay: GTPγS binding assay at D2; format: biochemical; set-up: expressed in transfected cells; settings: percent response of reference ligand dopamine; mean ± SEM
# T9 sequence (P14416 1-414 isoform P14416-2): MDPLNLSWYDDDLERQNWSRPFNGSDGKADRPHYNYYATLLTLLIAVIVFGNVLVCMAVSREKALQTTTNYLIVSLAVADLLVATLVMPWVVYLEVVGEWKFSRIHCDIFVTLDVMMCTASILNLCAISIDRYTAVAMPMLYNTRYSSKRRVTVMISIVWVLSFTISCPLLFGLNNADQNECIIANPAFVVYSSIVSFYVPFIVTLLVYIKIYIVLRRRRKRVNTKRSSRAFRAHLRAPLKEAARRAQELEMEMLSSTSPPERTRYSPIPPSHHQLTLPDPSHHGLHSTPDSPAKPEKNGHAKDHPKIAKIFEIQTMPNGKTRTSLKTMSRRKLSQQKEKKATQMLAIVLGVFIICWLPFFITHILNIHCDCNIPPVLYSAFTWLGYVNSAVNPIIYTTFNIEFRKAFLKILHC
# Method: Cells were not centrifuged following cell scraping, but were collected directly into the ice-cold nitrogen cavitation chamber.
# 50 μl/well Wheat-Germ Agglutinin SPA beads (Perkin Elmer, Shelton, Conn.) were added to the plates and the plates incubated for 1 hour. The plates were then centrifuged at 1,000×g for 10 minutes and read on a Top Count NXT (Perkin Elmer, Shelton, Conn.).
# To relate the results observed in R-SAT™ to a more conventional assay system, these ligands were also tested for the ability to induce GTPγS binding through D2 receptors.
# [16] = molecular target: T9, D2 receptors; assay: R-SAT functional assay at D2; format: cell-based; set-up: expressed in transfected cells; host or cells: NIH-3T3
# [17] = molecular target: T9, D2 receptors; assay: BRET2 beta-arrestin-2 recruitment assay at D2; format: cell-based; set-up: expressed in transfected cells; host or cells: HEK-293T
# Method: as §1
# Each curve is representative of two to three independent experiments.
# [18] = molecular target: T10, human alpha1A receptor (Homo sapiens, UniProt P35348); assay: R-SAT assay α1A; format: cell-based; settings: Table 3, α1A; percent response of reference Phenylephrine
# T10 construct: expressed in transfected cells; host or cells: NIH/3T3 cells, transient transfection, pSI vector
# T10 sequence (P35348 1-466): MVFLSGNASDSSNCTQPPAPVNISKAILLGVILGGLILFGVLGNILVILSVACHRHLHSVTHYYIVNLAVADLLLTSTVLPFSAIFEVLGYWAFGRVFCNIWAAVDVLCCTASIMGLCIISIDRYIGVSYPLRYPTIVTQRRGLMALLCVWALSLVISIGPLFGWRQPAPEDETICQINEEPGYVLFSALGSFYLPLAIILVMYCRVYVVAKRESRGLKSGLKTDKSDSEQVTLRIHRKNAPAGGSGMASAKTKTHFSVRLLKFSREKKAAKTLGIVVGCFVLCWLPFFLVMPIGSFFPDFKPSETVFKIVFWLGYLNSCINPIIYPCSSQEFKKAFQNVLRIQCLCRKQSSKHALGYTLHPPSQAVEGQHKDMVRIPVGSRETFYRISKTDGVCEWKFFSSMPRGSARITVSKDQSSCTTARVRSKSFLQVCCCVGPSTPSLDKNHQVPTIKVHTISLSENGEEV
# [19] = molecular target: T11, human alpha1B receptor (Homo sapiens, UniProt P35368); assay: R-SAT assay α1B; format: cell-based; settings: Table 3, α1B; percent response of reference Phenylephrine
# T11 construct: expressed in transfected cells; host or cells: NIH/3T3 cells, transient transfection, pSI vector
# T11 sequence (P35368 1-520): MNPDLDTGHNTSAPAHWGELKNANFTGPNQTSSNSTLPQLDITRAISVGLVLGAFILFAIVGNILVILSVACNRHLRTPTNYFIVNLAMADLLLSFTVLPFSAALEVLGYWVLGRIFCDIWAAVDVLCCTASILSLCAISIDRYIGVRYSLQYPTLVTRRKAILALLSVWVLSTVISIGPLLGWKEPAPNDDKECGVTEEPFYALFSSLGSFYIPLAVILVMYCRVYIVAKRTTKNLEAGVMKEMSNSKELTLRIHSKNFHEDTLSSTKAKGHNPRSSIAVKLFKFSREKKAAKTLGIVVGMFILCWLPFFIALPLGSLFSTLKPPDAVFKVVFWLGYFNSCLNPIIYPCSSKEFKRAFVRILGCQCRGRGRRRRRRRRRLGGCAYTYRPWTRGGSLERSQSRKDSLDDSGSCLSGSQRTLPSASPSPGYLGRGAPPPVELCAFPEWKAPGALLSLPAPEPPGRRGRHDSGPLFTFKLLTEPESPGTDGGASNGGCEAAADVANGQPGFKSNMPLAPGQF
# [20] = molecular target: T12, human D1 receptor (Homo sapiens, UniProt P21728); assay: R-SAT assay D1; format: cell-based; settings: Table 3, D1; percent response of reference SKF 38393
# T12 construct: expressed in transfected cells; host or cells: NIH-3T3 (inferred: R-SAT host; D1 is in neither method list of b200)
# T12 sequence (P21728 whole entry): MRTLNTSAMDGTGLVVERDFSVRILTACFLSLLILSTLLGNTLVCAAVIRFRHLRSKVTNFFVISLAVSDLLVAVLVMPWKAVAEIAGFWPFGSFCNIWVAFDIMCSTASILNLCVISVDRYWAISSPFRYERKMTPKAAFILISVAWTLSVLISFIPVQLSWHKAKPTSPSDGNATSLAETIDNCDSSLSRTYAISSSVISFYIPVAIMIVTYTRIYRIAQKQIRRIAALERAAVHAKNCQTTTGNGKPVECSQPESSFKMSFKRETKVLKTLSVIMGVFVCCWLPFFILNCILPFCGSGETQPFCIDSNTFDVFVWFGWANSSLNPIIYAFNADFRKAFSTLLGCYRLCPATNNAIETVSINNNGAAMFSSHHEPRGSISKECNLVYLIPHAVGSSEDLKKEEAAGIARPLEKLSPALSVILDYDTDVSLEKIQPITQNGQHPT
# [21] = molecular target: T13, human alpha2C receptor (Homo sapiens, UniProt P18825); assay: R-SAT assay α2C; format: cell-based; settings: Table 3, α2C; percent response of reference UK 14,306
# T13 construct: expressed in transfected cells; host or cells: NIH/3T3 cells, transient transfection, pSI vector
# T13 sequence (P18825 1-462): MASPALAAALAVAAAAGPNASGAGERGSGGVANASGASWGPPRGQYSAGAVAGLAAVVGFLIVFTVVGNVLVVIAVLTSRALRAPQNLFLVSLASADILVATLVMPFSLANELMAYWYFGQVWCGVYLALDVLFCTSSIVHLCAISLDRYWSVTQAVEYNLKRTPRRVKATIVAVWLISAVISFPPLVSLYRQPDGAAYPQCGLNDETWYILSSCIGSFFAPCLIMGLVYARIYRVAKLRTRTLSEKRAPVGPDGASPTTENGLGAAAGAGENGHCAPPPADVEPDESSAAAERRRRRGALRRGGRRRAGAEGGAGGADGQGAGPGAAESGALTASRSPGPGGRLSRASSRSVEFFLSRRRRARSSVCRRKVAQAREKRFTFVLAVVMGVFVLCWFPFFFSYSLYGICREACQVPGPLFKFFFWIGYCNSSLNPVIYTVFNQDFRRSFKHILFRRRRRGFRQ
# [22] = percent response of reference ligand 5-HT
# human 5-HT1B receptor, sequence (P28222 whole entry): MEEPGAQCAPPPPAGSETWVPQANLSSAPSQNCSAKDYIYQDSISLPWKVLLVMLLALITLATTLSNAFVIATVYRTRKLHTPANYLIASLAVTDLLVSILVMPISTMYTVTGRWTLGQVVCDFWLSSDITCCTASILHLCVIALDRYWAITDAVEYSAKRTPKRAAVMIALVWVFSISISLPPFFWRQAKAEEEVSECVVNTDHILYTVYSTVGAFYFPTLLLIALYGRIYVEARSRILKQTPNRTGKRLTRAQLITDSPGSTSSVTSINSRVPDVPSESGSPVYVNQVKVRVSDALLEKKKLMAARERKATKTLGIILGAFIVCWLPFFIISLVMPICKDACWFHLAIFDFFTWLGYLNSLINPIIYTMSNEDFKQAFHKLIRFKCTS
structure (smiles),measurement,setting,value
"NCCc1c[nH]c2ccc(C(N)=O)cc12 [5-CT, 5-carboxamidotryptamine, reference compound]",pEC50,[1],8.20
same,Eff (%),"[1]; Table 3, 5-HT1B, percent response of reference 5-CT",100%
same,Eff (%),[2],100%
same,Eff (%),[3],100%
same,pEC50,[4],6.60
same,Eff (%),"[4]; Table 3, 5-HT6, percent response of reference 5-CT",100%
same,Eff (%),[5],100%
same,EC50,"[6]; negative logarithm of EC50 in molar (M), HEK 293T cells, read-out: PI Hydrolysis pEC50 (converted)",2.51e-07 M
same,PI Hydrolysis Eff (%),[6]; [22],92 ± 4%
same,EC50,"[7]; Table 1, negative logarithm of EC50 in molar (M), NIH3T3 cells, mean ± SEM, read-out: R-SAT pEC50 (converted)",6.31e-08 M
same,R-SAT Eff(%),"[7]; Table 1, percent response of reference ligand 5-CT, mean ± SEM",100 ± 0%
same,EC50,"[7]; Table 3, 5-HT2A, negative logarithm of EC50 in molar, read-out: pEC50 (converted)",7.94e-08 M
same,Eff (%),"[7]; Table 3, 5-HT2A, percent response of reference 5-CT",100%
same,pEC50,[8],7.30
same,Eff (%),"[8]; Table 3, 5-HT2B, percent response of reference 5-CT",100%
same,EC50,"[9]; negative logarithm of EC50 in molar (M), HEK 293T cells, read-out: BRET2 pEC50 (converted)",2e-07 M
same,BRET2 Eff %,[9]; [22],98 ± 3%
"C[N+](C)(C)CCOC(N)=O [Carbachol, reference compound]",Eff (%),[10],100%
same,Eff (%),[11],100%
same,Eff (%),[12],100%
CCCN1C[C@H](CSC)C[C@@H]2c3cccc4[nH]cc(c34)C[C@H]21 [Pergolide],Eff (%),[13],100%
same,Eff (%),[14],100%
same,GTPγS Eff %,[15],94 ± 7%
same,R-SAT Eff(%),"[16]; Table 2, percent response of reference ligand pergolide, mean ± SEM",100 ± 0%
same,Eff (%),"[16]; Table 3, D2, percent response of reference Pergolide",100%
same,agonist profile in BRET2 assays at D2 receptors,[17],partial agonists
same,BRET2 Eff %,"[17]; percent response of reference ligand dopamine, mean ± SEM",64 ± 3%
"CNC[C@H](O)c1cccc(O)c1 [Phenylephrine, reference compound]",Eff (%),[18],100%
same,Eff (%),[19],100%
"Oc1cc2c(cc1O)C(c1ccccc1)CNCC2 (stereo not shown) [SKF 38393, reference compound]",Eff (%),[20],100%
"Brc1c(NC2=NCCN2)ccc2nccnc12 [UK 14,306, reference compound]",Eff (%),[21],100%
